Reference: patent publication US9840500B2, “Compounds as dual inhibitors of histone methyltransferases and DNA methyltransferases” (FUNDACIÓN PARA LA INVESTIGACIÓN MÉDICA APLICADA, priority 2014, dated 2017)

How the values were obtained:
[1] = test system: PLC/PRF/5; test: Cell proliferation assay, PLC/PRF/5 (HCC); type: cell-based; details: Homo sapiens, 48 hours of treatment, Table 3
Protocol: (§1) Cell proliferation was analyzed after 48 hours of in vitro treatment using the CellTiter 96 Aqueous One Solution Cell Proliferation Assay (Promega, Madison, Wis.). This is a colorimetric method for determining the number of viable cells in proliferation.
(§2) For the assay, suspension cells were cultured by triplicate at a density of 1×10^6 cells/ml in 96-well plates (100.000 cells/well, 100 μl/well), except for OCILY-3 and OCILY-10 cell lines which were cultured at a density of 0.5×10^6 cells/ml (50.000 cells/well, 100 μl/well) and for HepG2, Hep3B and PLC/PRF/5 cell ines which were cultured at a density of 3000 cells/well, 100 μl/well). Adherent cells were obtained from 80-90% confluent flasks and 100 μl of cells were seeded at a density of 5000 cells/well in 96-well plates by triplicate. Before addition of the compounds, adherent cells were allowed to attach to the bottom of the wells for 12 hours. In all cases, only the 60 inner wells were used to avoid any border effects.
(§3) After 48 hours of treatment, plates with suspension cells were centrifuged at 800 g for 10 minutes and medium was removed. The plates with adherent cells were flicked to remove medium. Then, cells were incubated with 100 ul/well of medium and 20 ul/well of CellTiter 96 Aqueous One Solution reagent. After 1-3 hours of incubation at 37° C., absorbance was measured at 490 nm in a 96-well plate reader. The background absorbance was measured in wells with only cell line medium and solution reagent. Data was calculated as a percentage of total absorbance of treated cell/absorbance of non treated cells.

[2] = test system: OCI-Ly10; test: Cell proliferation assay, OCI-Ly10 (ABC-DLBCL); type: cell-based; details: Homo sapiens, 48 hours of treatment, Table 3
Protocol: as §1, §2, §3

[3] = test system: OCI-Ly3; test: Cell proliferation assay, OCI-Ly3 (ABC-DLBCL); type: cell-based; details: Homo sapiens, 48 hours of treatment, Table 3
Protocol: as §1, §2, §3

[4] = test system: CEMO-1; test: Cell proliferation assay, CEMO-1 (ALL); type: cell-based, human; details: Homo sapiens; 48 hours of treatment; Table 3
Protocol: as §1, §2, §3

[5] = test system: Hep3B; test: Cell proliferation assay, Hep3B (HCC); type: cell-based; details: Homo sapiens, 48 hours of treatment, Table 3
Protocol: as §1, §2, §3

[6] = test system: HepG2; test: Cell proliferation assay, HepG2 (HCC); type: cell-based; details: Homo sapiens, 48 hours of treatment, Table 3
Protocol: as §1, §2, §3

[7] = target: DNMT1 (Homo sapiens, UniProt P26358); test: DNMT1 enzyme activity assay (TR-FRET, EPIgeneous methyltransferase assay); type: biochemical
Sequence of DNMT1 (P26358 whole entry): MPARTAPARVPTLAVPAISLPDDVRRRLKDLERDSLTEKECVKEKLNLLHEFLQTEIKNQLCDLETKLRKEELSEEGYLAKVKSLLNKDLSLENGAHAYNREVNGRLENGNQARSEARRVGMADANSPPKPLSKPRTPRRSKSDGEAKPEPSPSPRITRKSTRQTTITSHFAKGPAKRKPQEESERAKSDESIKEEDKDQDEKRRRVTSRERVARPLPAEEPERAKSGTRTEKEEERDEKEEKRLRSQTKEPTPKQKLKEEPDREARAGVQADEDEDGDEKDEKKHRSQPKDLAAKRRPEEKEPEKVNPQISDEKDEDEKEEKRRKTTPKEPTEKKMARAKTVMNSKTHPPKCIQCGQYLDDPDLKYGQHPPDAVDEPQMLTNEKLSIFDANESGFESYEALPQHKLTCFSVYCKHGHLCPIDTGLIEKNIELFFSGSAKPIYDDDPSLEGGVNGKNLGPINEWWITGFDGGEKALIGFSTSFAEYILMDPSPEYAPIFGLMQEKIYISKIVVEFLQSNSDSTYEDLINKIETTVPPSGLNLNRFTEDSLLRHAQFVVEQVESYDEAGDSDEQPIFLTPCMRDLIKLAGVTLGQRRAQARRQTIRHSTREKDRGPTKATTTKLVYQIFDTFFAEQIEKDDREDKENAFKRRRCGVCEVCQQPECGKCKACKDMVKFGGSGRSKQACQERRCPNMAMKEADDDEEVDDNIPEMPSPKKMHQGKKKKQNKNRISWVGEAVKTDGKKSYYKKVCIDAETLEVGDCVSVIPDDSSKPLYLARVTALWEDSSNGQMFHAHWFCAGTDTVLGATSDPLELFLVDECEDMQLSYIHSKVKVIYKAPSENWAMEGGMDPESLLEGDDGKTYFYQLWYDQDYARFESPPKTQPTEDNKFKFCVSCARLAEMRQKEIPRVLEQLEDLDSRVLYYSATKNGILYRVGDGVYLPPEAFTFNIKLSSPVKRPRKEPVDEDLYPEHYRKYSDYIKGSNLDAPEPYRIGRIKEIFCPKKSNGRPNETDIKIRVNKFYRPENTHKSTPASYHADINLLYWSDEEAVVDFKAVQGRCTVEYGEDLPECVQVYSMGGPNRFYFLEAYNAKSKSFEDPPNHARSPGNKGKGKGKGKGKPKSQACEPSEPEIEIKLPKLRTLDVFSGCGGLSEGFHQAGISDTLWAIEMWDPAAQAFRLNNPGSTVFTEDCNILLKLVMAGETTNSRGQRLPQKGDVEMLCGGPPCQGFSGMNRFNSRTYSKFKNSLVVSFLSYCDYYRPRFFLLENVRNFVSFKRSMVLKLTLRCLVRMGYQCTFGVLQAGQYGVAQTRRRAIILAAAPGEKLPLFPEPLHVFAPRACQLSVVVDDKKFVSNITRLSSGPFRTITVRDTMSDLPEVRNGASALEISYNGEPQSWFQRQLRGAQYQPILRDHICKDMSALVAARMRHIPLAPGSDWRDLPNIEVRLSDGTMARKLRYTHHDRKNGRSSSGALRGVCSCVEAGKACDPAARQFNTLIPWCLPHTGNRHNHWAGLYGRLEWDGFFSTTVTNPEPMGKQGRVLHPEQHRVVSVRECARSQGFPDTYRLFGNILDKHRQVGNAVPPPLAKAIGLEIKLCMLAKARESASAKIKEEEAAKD
Protocol: The biochemical assay to measure DNMT1 enzyme activity relies on time-resolved fluorescence energy transfer (TR-FRET) between lumi4-Tb (donor) and d2 (acceptor) using the EPIgeneous methyltransferase assay (CisBio Cat#62SAHPEB). […] TR-FRET signal is inversely proportional to the concentration of SAH, product of DNMT1 enzyme activity, in the sample.
The human DNMT1 was obtained from Reaction Biology Corp. (Cat# DMT-21-124). […] Final percentage of DMSO was 0.5%. • 2 μl of 1 nM DNMT1 enzyme diluted in assay buffer.
(§4) For each well, fluorescence was measured at 620 nm and 665 nm. A ratio (665 nm/620 nm) was then calculated in order to minimize medium interferences. Positive control was obtained in the presence of the vehicle of the compounds. Negative control was obtained in the absence of G9a enzyme activity. Calculated IC50 values were determined using GraphPrism using 4-parameters inhibition curve.

[8] = target: T1, human G9a enzyme (Homo sapiens, UniProt Q96KQ7); test: G9a enzyme activity assay (TR-FRET); type: biochemical
T1 sequence (Q96KQ7 1-1210): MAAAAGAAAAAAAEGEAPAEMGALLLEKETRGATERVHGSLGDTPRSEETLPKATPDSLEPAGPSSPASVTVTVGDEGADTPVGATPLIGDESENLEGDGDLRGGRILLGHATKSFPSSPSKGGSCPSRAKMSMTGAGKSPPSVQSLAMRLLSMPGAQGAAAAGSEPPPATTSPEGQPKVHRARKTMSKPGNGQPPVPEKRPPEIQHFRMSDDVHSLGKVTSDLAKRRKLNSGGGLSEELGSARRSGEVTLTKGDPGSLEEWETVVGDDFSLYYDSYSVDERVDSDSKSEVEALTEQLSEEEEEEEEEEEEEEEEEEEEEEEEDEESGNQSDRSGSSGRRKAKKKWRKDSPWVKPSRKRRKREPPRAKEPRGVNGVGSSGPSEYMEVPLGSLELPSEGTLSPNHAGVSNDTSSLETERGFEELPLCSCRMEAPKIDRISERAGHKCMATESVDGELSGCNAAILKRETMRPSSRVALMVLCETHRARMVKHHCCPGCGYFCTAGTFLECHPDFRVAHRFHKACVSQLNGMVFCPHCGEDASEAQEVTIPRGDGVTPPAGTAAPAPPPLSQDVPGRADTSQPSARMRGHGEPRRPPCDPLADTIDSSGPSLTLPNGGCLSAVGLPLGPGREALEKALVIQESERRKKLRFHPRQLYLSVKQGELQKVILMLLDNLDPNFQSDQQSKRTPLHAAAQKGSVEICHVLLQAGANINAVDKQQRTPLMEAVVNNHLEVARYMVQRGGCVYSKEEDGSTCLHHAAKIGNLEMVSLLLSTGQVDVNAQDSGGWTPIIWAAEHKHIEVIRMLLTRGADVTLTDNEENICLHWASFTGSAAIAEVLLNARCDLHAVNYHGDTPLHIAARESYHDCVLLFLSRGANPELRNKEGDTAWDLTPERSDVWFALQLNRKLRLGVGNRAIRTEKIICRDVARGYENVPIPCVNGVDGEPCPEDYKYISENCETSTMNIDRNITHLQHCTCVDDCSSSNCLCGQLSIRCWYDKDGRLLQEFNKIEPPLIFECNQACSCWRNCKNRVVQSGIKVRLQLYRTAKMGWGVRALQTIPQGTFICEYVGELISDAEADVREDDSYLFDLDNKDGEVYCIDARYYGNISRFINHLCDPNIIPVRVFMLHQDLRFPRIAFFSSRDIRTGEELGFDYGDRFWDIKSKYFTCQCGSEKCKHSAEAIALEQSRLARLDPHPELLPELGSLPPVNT
Protocol: The biochemical assay to measure G9a enzyme activity relies on time-resolved fluorescence energy transfer (TR-FRET) between europium cryptate (donor) and XL665 (acceptor). […] The human G9a enzyme expressed in a baculovirus infected Sf9 cell expression system was obtained from BPS Biosciences (Cat. #51001). […] Final percentage of DMSO was 0.5%. • 2 μl of 1 nM G9a enzyme diluted in assay buffer. […] Final concentration 150 nM. • Then, add 5 μl of streptavidin XL665 beads. Final concentration of 16 μM. • Read the plate after 1 hour of incubation at room temperature.
as §4

[9] = test system: LAL-CUN-2; test: Cell proliferation assay, LAL-CUN-2 (ALL); type: cell-based; details: 48 hours of treatment; Table 3
Protocol: as §1, §2, §3

Compound | GI50 [1] | GI50 [2] | GI50 [3] | GI50 [4] | GI50 [5] | GI50 [6] | IC50 [7] | IC50 [8] | GI50 [9]
CNC(=O)CCNc1cc(-c2ccc(C)o2)nc2cc(OCCCN3CCCC3)c(OC)cc12 [Compound 3-19] | 1 to 10 µM | 0.1 to 1 µM | 0.1 to 1 µM | 1 to 10 µM | 1 to 10 µM | ≤ 10 µM |  |  | 
COc1cc2c(NC3CCN(C)CC3)cc(-c3ccccc3)nc2cc1OCCCN1CCCC1 [Compound 3-29] | 1 to 10 µM | 0.1 to 1 µM | 0.1 to 1 µM | 0.1 to 1 µM | 1 to 10 µM | 1 to 10 µM | 1 to 10 µM | < 0.1 µM | 
CCc1ccc(-c2cc(NC3CC4CCC(C3)N4C)c3cc(OC)c(OCCCN4CCCC4)cc3n2)o1 (centres unmarked) [Compound 3-50] | 0.1 to 1 µM | 1 to 10 µM | 0.1 to 1 µM | 0.1 to 1 µM | 1 to 10 µM | 1 to 10 µM | 0.1 to 0.5 µM | < 0.1 µM | 
COc1cc2c(NC3CCN(C)CC3)cc(-c3ccco3)nc2cc1OCCCN1CCCC1 [Compound 3-40] |  | < 0.1 µM | < 0.1 µM | < 0.1 µM |  |  | 0.1 to 0.5 µM | < 0.1 µM | 0.1 to 1 µM
COc1cc2c(NC3CCN(C)CC3)cc(-c3ccc(C)o3)nc2cc1OC1CC2(C1)CN(C)C2 [Compound 17-01, 6-methoxy-7-[(2-methyl-2-azaspiro[3.3]heptan-6-yl)oxy]-2-(5-methyl-2-furyl)-N-(1-methyl-4-piperidyl)quinolin-4-amine; 2,2,2-trifluoroacetic acid] | 0.1 to 1 µM |  | < 0.1 µM |  | 0.1 to 1 µM | 0.1 to 1 µM |  |  | 
CCc1ccc(-c2cc(NCC3CCN(C)CC3)c3cc(OC)c(OCCCN4CCCC4)cc3n2)o1 [Compound 3-42] | 0.1 to 1 µM |  | 0.1 to 1 µM |  | 0.1 to 1 µM | < 0.1 µM |  |  | 0.1 to 1 µM
CCc1ccc(-c2cc(NC3C4CCC3CN(C)C4)c3cc(OC)c(OCCCN4CCCC4)cc3n2)o1 (centres unmarked) [Compound 3-51] | 0.1 to 1 µM | 0.1 to 1 µM | 1 to 10 µM | 0.1 to 1 µM | 0.1 to 1 µM | 0.1 to 1 µM | 0.1 to 0.5 µM | < 0.1 µM | 
COc1cc2c(NC3CCN(C)CC3)cc(-c3ccc(C)o3)nc2cc1OC1CCN(C)CC1 [Compound 12-02] | 1 to 10 µM | 0.1 to 1 µM | 0.1 to 1 µM | 0.1 to 1 µM | 1 to 10 µM | 1 to 10 µM |  |  | 
COc1cc2c(NC3CC4(CCN(C)C4)C3)cc(-c3ccc(C)o3)nc2cc1OCCCN1CCCC1 (centres unmarked) [Compound 5-03] |  |  | 0.1 to 1 µM |  |  |  |  |  | 1 to 10 µM
COc1cc2c(NC3CC4(CCN(C)CC4)C3)cc(-c3ccc(C)o3)nc2cc1OCC1CCN(C)CC1 [Compound 12-03] | 0.1 to 1 µM |  | < 0.1 µM |  | 0.1 to 1 µM | 0.1 to 1 µM |  |  | 
COc1cc2c(NC3CCC34CCN(C)C4)cc(-c3ccc(C)o3)nc2cc1OCCCN1CCCC1 (centres unmarked) [Compound 5-04] |  |  | 0.1 to 1 µM |  |  |  |  |  | 1 to 10 µM
